This is an account of results in article PMC9313812, “The Pseudo‐Natural Product Rhonin Targets RHOGDI” (Angewandte Chemie (International Ed. in English), 2022).

A word on the IC50: it is the concentration needed to halve the response being measured.

Entries after “also recorded” stand apart in the source; their conditions may differ. Where two headings read alike, the source gives them in different places.

Assay [1] has as its system C3H/10T1/2 cells. Kind of assay: Osteoblast differentiation assay (ODA): purmorphamine-induced osteogenesis, alkaline phosphatase luminescence readout. In kind it is cell-based, mouse. More on the design: key to Osteogenesis IC50: Compounds are marked inactive when no inhibition was observed at the highest test concentration of 30 µM. The settings on record: for IC50: Mus musculus, C3H 10T1/2; for Inhibition of Hh-/purmorphamine-induced osteogenesis (in words): C3H/10T1/2 cells. As to the method: Supplementary Table S7. Inhibition of osteogenesis assay. C3H10T1/2 cells were incubated with 1.5 µM purmorphamine and compounds or DMSO as a control for 96 h. The activity of alkaline phosphatase was assessed by means of a luminescence readout. Values for cells, which were treated with DMSO and purmorphamine, were set to 100% and data were measured in […]
concentration of 30 µM. All data are mean values of three independent experiments (n = 3) ± […]
Compound Osteogenesis IC50
(1 picture or pasted object on this page, not shown here)
NIH/3T3 cells were obtained from DSMZ, Germany (DSMZ ACC 59) and were cultured in DMEM (high glucose) supplemented with 10% heat-inactivated FCS, 2 mM L -glutamine and 1 mM sodium pyruvate. Shh -LIGHT2 cells (NIH/3T3 cells stably transfected with a Gli-responsive firefly luciferase reporter plasmid and a pRL-TK constituitive Renilla luciferase expression vector)[4] were cultured in the same culturing medium supplemented with 400 μg ml −1 G418 and 150 μg ml −1 Zeocin as selecting agents. The murine osteoblasts C3H/10T1/2 (ATCC CCL-226) were obtained from ATCC, USA and were cultured in DMEM (high glucose) supplemented with 10% heat-inactivated FCS, 6 mM L -glutamine, 1 mM sodium pyruvate. HEK293T cells (ATCC, England) were grown in DMEM containing 10% FBS, 100 U ml −1 penicillin and 0.1 mg ml −1 streptomycin. All cell lines were maintained at 37 °C and 5% CO 2 in a humidified atmosphere. All the cell lines were regularly assayed for mycoplasma and were confirmed to be mycoplasma-free. Transfection of DNA constructs and siRNAs were performed using FuGENE HD (Promega), Lipofectamine® LTX (Invitrogen) and DharmaFECT™ (GE Healthcare) transfection reagent according to the manufacturer’s […]
Osteoblast differentiation assay
The osteoblast differentiation assay was performed by the Compound Management and Screening Center (COMAS) in Dortmund, Germany. C3H/10T1/2 cells were seeded (800 per well) in white 384-well plates or (6000 per well) in 96-well plates. After incubation for 16 h, compounds or DMSO were added to the cells using the acoustic nanoliter dispenser ECHO 520 (Labcyte) and osteogenesis was induced with 1.5 µM purmorphamine. Plates were incubated for 96 h at 37 °C and 5% CO2. Alkaline phosphatase activity was measured by replacing the medium with osteogenesis-lysis buffer (lysis buffer: 100 mM Tris pH 9.5, 250 mM NaCl, 25 mM MgCl2, 1% Triton X-100, sterile filtered) containing 1:100 chemiluminescent substrate CDP-Star® (Promega, 384-well plates: 35 µL, 96-well plates: 50 µL) for one hour in the dark at 25 °C. In 384-well plates, the luminescence was monitored using the Paradigm plate reader (Molecular Devices, USA), whereas Spark plate reader (Tecan, Austria) was used to measure luminescence in 96-well plates. Dose-response analyses were performed for all hit compounds […]
using a three-fold dilution series starting from a concentration of 30 μM. Half-maximal inhibitory concentrations (IC50) were calculated using the Quattro software suite (Quattro Research, Planegg, Germany) or GraphPad Prism 7 (GraphPad, USA).
The effect of test compounds on the viability of C3H/10T1/2 cells was determined by CellTiter-Glo Luminescence cell viability assay (Promega). Cells were treated as described for the osteogenesis assay prior to addition of the CellTiter-Glo® reagent according to manufacturer’s protocol. Compounds causing at least a 50% reduction in the osteogenesis assay and retaining cell viability of at least 80% were considered as hits. Dose-response analyses were performed for all hit compounds using a three-fold dilution series starting from a concentration of 30 μM. Half-maximal inhibitory concentrations (IC50) were calculated using the Quattro software suite (Quattro Research GmbH). […]

Assay [2] deals with T1, RHOGDI1-mediated extraction of RAC1 (Homo sapiens, UniProt P52565).
T1 construct: made in house; host or cells: RHOGDI1: E. coli; prenylated RAC1: insect cells (TNAO38)
T1 sequence (P52565 1-204): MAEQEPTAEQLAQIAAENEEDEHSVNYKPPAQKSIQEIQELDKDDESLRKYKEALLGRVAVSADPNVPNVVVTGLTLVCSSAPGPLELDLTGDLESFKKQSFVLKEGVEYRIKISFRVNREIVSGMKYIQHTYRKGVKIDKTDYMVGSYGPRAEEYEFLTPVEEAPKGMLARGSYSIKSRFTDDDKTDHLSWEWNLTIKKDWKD
Kind of assay: Liposome sedimentation assay: displacement of prenylated GDP-bound RAC1 from liposomes by GST-RHOGDI1. In kind it is biochemical. To be noted: 50 μM compound. The method, then: Liposome sedimentation assay
Liposomes were prepared by self-assembly of the lipids (500 μg) containing 20% (w/w) phosphatidylethanolamine, 45% (w/w) phosphatidylcholine, 20% (w/w) phosphatidylserine, 10% (w/w) cholesterol, and 5% (w/w) phosphatidylinositol 4,5-bisphosphate. Liposome assays were performed by mixing, sonicating (20 s with minimal power, 50% off and 50% on) and extruding ([…] filter) the lipids in 300 µl of a buffer, containing 20 mM HEPES-NaOH pH 7.4, 50 mM NaCl, 3 mM DTT, 5 mM MgCl2. 1 µM GerGer-RAC1-GDP was added to the liposomes and incubated for 20 min on ice. 1.5 µM GST‐RHOGDI-1 and the compounds or DMSO were added to the liposome-GerGer-RAC1-GDP complex prior to incubation on ice for 30 min. The samples were centrifuged at 20,000 x g for 30 min at 4 °C. The resulting pellet and supernatant fractions were collected and analyzed by immunoblotting. 10 µl of each sample were loaded on a SDS-PAGE gel for Western blotting. Specific antibodies were used to visualize RAC1, CDC42 and RHOA.
10 µM of GerGer-RAC1-GDP was added to liposomes suspended in flotation assay buffer containing 20 mM HEPES-NaOH pH 7.4, 50 mM M NaCl, 3 mM DTT, 5 mM MgCl2, and incubated for 20 min on ice. The liposomes were prepared by using self-assembling the lipids (500 μg lipids in 300 µl buffer), containing 15% (w/w) phosphatidylethanolamine, 0.5% (w/w) NBD-PE (N-(7-nitrobenz-2-oxa-1,3-diazol-4-yl)-1,2-dihexadecanoyl-sn-glycero-3-phosphoethanolamine, triethylammonium salt), 45% (w/w) phosphatidylcholine, 20% (w/w) phosphatidylserine, 10% (w/w)cholesterol, and 5% (w/w) phosphatidylinositol 4,5-bisphosphate. 15 µM of GST‐RHOGDI-1 and compounds or DMSO was added to liposome-GerGer-RAC1-GDP complex and samples were further incubated on ice for 30 min. The samples were added to 30% (w/v) sucrose solution. […]
The resulting samples were centrifuged at 140000 x g for 1 h at 4 °C. The upper liposome‐ containing phase (detected by fluorescent NDB‐PE) was collected and analyzed by […]

Setting [3] is: Table S9, purmorphamine-induced, mean, n=3 ± SD, read-out: ODA IC50 ± SD.

`COC(=O)C1(C(CC(=O)c2ccccc2)c2ccccc2)N=C(c2ccc(Br)cc2)C2C(=O)N(C)C(=O)C21` (stereo not drawn) [7a]: the IC50 turned out to be 1.5 ± 0.2 µM in assay [1] (Table S7, 1.5 µM purmorphamine, 96 h, mean ± SD, n=3, highest test concentration 30 µM, read-out: Osteogenesis IC50) and 1.3 ± 0.3 µM in assay [1] (setting [3]). Further, the “Inhibition of RHOGDI1-mediated extraction of RAC1 from liposomes (in words)” value (shortened to “Inhibition … from liposomes (in words)”) in assay [2] is “inhibits the extraction of RAC1”.
As to `COC(=O)C1(CCC(=O)c2ccc(F)cc2)N=C(c2ccc(Br)cc2)C2C(=O)N(C)C(=O)C21` (stereo not drawn) [7d], the “Inhibition of Hh-/purmorphamine-induced osteogenesis (in words)” value in assay [1] was “abolished activity; also recorded: did not inhibit osteogenesis”. In addition, in assay [1] (Table S7, 1.5 µM purmorphamine, 96 h, mean ± SD, n=3, highest test concentration 30 µM), the “Osteogenesis IC50” value is “inactive”. Further, the “Inhibition … from liposomes (in words)” value in assay [2] is “did not inhibit extraction of RAC1”.
`COC(=O)C1(C(CC(=O)c2cccnc2)c2ccccc2)N=C(c2ccc(Br)cc2)C2C(=O)N(C)C(=O)C21` (stereo not drawn) [7l]: in assay [1], the “Inhibition of Hh-/purmorphamine-induced osteogenesis (in words)” value is “most potently inhibited”. Further, the IC50 in assay [1] (setting [3]) amounted to 1.52 ± 0.22 µM. For the same molecule, in assay [2], the “Inhibition … from liposomes (in words)” value is recorded as “inhibited”.
